Reference: patent US20100222396A1 (Novartis AG, priority 2009, published 2010)

How the values were obtained:
[1] = molecular target: T1, human orexin 1 receptor (hOx1R) (Homo sapiens, UniProt O43613); assay: Calcium accumulation in cells (FLIPR), antagonism of orexin A, hOx1R; format: cell-based; details: for inhibition at 10 µM: measured at a concentration of 10 μM of compound (cells marked ^a); for Kd: cells expressing human orexin 1 receptor, IC50 vs orexin A converted by Cheng and Prusoff correction
T1 construct: expressed in transfected cells
T1 sequence (O43613 1-425): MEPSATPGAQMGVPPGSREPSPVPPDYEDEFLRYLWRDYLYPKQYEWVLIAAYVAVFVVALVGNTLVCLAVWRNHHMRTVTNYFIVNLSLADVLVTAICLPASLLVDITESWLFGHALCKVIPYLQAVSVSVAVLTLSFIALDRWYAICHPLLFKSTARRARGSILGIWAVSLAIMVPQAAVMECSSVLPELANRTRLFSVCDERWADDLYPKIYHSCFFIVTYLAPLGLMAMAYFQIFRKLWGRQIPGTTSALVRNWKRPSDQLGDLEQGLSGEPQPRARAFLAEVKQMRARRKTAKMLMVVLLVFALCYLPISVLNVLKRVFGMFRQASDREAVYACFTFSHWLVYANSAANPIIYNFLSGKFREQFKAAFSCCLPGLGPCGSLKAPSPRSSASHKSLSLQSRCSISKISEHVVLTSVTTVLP
Experimental: (§1) Cells expressing human orexin 1 or human orexin 2 receptors, were seeded at 8,000 cells/well in 384 well black-walled clear bottom, poly-D-lysine coated plates. After 24 h, the medium was removed and cells were washed once with phosphate buffered saline and serum-deprived overnight in assay buffer (130 mM NaCl, 5.4 mM KCl, 1.8 mM CaCl2, 0.8 mM MgSO4, 0.9 mM NaH2PO4, 25 mM glucose, 20 mM HEPES, pH 7.4) containing bovine serum albumin (1% w/v).
(§2) On the day of the experiment, the cells seeded in black plates were treated with assay buffer containing the Ca^2+ sensitive fluorescent dye Fluo-4-AM (2 μM), and probenecid (0.1 mM). After 1 h plates were washed twice with, and resuspended in, assay buffer containing probenecid (0.1 mM) using a multi plate washer. The plates were placed into a FLIPR II (Fluorometric Imaging Plate Reader, Molecular Devices, Sunnyvale, Calif., USA) and baseline fluorescence (fluorescence light units, FLU) was measured (5 measurements, 2 S each; laser excitation 488 nm at 0.6-1 W, CCD camera exposure 0.4 s) before addition of buffer alone (basal) or containing test compounds (either compound of formula I alone, agonist alone or agonist in the presence of various concentrations of compounds of formula I). Fluorescence measurements were then continued every 1 S for 120 S followed by every 4 S for 240 S.
(§3) The measurements were typically made in two sequences:
(§4) Compounds of formula I were tested usually in a concentration range from 10^−9 M to 10^−5 M.
(§5) In the second round, performed one hour later (to allow for equilibration), Orexin A was tested either in the absence (calibration curves, Orexin A agonist controls) or in the presence of compounds of formula I to determine antagonism.

[2] = molecular target: T2, human orexin 2 receptor (hOx2R) (Homo sapiens, UniProt O43614); assay: Calcium accumulation in cells (FLIPR), antagonism of orexin A, hOx2R; format: cell-based; details: for Kd: cells expressing human orexin 2 receptor, IC50 vs orexin A converted by Cheng and Prusoff correction; for inhibition at 10 µM: measured at a concentration of 10 μM of compound (cells marked ^a)
T2 construct: expressed in transfected cells
T2 sequence (O43614 1-444): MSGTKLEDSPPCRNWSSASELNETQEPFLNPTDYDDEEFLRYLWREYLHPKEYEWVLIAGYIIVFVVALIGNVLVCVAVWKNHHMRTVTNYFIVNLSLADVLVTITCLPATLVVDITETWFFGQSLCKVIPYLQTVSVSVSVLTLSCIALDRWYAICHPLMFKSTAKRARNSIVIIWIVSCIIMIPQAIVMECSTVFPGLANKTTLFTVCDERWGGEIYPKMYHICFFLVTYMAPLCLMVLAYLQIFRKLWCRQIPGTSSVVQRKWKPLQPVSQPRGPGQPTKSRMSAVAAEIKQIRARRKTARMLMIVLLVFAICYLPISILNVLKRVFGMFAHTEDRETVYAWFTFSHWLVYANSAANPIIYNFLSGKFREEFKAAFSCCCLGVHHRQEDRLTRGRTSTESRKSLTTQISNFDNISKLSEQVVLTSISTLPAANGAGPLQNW
Experimental: as §1, §2, §3, §4, §5

| Compound | inhibition at 10 µM [1] [%] | Kd [2] [nM] | inhibition at 10 µM [2] [%] | Kd [1] [nM] |
| --- | --- | --- | --- | --- |
| CN(C(=O)c1ccccc1)[C@H](CCNC(=O)c1cccn1C)Cc1ccccc1 [Example 91, 1-Methyl-1H-pyrrole-2-carboxylic acid [(S)-3-(benzoyl-methyl-amino)-4-phenyl-butyl]-amide] | 16 | 375 | – | – |
| Cc1cccc(C)c1C(=O)N(C)[C@H](CCNC(=O)c1ccccn1)Cc1ccccc1 [Example 98, Pyridine-2-carboxylic acid {(8)-3-[(2,6-dimethyl-benzoyl)-methyl-amino]-4-phenyl-butyl}-amide] | 28 | – | 24 | – |
| CN(C(=O)c1ccccc1)[C@H](CCNC(=O)c1ccc2ccccc2n1)Cc1ccccc1 [Example 87, Quinoline-2-carboxylic acid [(S)-3-(benzoyl-methyl-amino)-4-phenyl-butyl]-amide] | – | 1290 | – | 4420 |
| CN(C(=O)c1ccc2c(c1)OCO2)[C@@H](Cc1ccccc1)[C@H](O)CNC(=O)c1ccc2c(c1)OCO2 [Example 72, Benzo[1,3]dioxole-5-carboxylic acid {(2R,3S)-3-[(benzo[1,3]dioxole-5-carbonyl)-methyl-amino]-2-hydroxy-4-phenyl-butyl}-amide] | 27 | 761 | – | – |
| CN(C(=O)c1ccccc1)[C@@H](Cc1ccccc1)[C@H](O)CNC(=O)c1ccccn1 [Example 69, Pyridine-2-carboxylic acid [(2R,3S)-3-(benzoyl-methyl-amino)-2-hydroxy-4-phenyl-butyl]-amide] | – | 1660 | – | 3520 |
| CN(C(=O)c1ccccc1)[C@H](CCNC(=O)c1ccc2c(c1)CCO2)Cc1ccccc1 [Example 94, 2,3-Dihydro-benzofuran-5-carboxylic acid [(S)-3-(benzoyl-methyl-amino)-4-phenyl-butyl]-amide] | 12 | 565 | – | – |
| CN(C(=O)c1ccccc1)[C@H](CCNC(=O)c1ccc2cccnc2c1)Cc1ccccc1 [Example 88, Quinoline-7-carboxylic acid [(S)-3-(benzoyl-methyl-amino)-4-phenyl-butyl]-amide] | 19 | 3090 | – | – |
| CN(C(=O)c1ccc2c(c1)OCO2)[C@H](CCNC(=O)c1nc2ccccc2o1)Cc1ccccc1 [Example 108, Benzooxazole-2-carboxylic acid {(S)-3-[(benzo[1,3]dioxole-5-carbonyl)-methyl-amino]-4-phenyl-butyl}-amide] | – | 542 | – | 3990 |
| CN(C(=O)c1ccc2ccn(C)c2c1)[C@H](CCNC(=O)c1ccccn1)Cc1ccccc1 [Example 85, 1-Methyl-1H-indole-6-carboxylic acid {(S)-1-benzyl-3-[(pyridine-2-carbonyl)-amino]-propyl}-methyl-amide] | – | 394 | – | 237 |
| CN(C(=O)c1ccccc1Br)[C@H](CCNC(=O)c1ccccn1)Cc1ccccc1 [Example 100, Pyridine-2-carboxylic acid {(8)-3-[(2-bromo-benzoyl)-methyl-amino]-4-phenyl-butyl}-amide] | – | 131 | – | 1080 |
| CN(C(=O)c1ccccc1)[C@](C)(CCNC(=O)c1ccccn1)Cc1ccccc1 [Example 111, Pyridine-2-carboxylic acid [(S)-3-(benzoyl-methyl-amino)-3-methyl-4-phenyl-butyl]-amide] | 25 | 562 | – | – |
| CN(C(=O)c1ccccc1)[C@H](CCNC(=O)c1cc2ccccc2cn1)Cc1ccccc1 [Example 89, Isoquinoline-3-carboxylic acid [(S)-3-(benzoyl-methyl-amino)-4-phenyl-butyl]-amide] | – | 2550 | – | 5450 |
| CC(=O)NCC[C@H](Cc1ccccc1)N(C)C(=O)c1ccc2c(c1)OCO2 [Example 109, Benzo[1,3]-dioxole-5-carboxylic acid ((S)-3-acetylamino-1-benzyl-propyl)-methyl-amide] | 39 | 1720 | – | – |
| COc1ccc(C(=O)N(C)[C@H](CCNC(=O)c2cccn2C)Cc2ccccc2)cc1OC [Example 120, 1-Methyl-1H-pyrrole-2-carboxylic acid {(8)-3-[(3,4-dimethoxy-benzoyl)-methyl-amino]-4-phenyl-butyl}-amide] | – | 4 | – | 182 |
| CN(C(=O)c1ccccc1)[C@H](CCNC(=O)c1nccn1C)Cc1ccccc1 [Example 92, 1-Methyl-1H-imidazole-2-carboxylic acid [(S)-3-(benzoyl-methyl-amino)-4-phenyl-butyl]-amide] | 2 | 921 | – | – |
| CN(C(=O)c1ccccc1)[C@H](CCNC(=O)c1ccccc1)Cc1ccccc1 [Example 15, N—[(S)-3-(Benzoyl-methyl-amino)-4-phenyl-butyl]-benzamide] | 17 | 272 | – | – |
| CN(C(=O)c1ccc2c(c1)OC(C)(C)O2)[C@H](CCNC(=O)c1ccccn1)Cc1ccccc1 [Example 101, Pyridine-2-carboxylic acid {(S)-3-[(2,2-dimethyl-benzo[1,3]dioxole-5-carbonyl)-methyl-amino]-4-phenyl-butyl}-amide] | 13 | 1680 | – | – |
| COc1ccc(C(=O)N(C)[C@H](CCNC(=O)c2nc3ccccc3n2C)Cc2ccccc2)cc1 [Example 90, 1-Methyl-1H-benzoimidazole-2-carboxylic acid {(S)-3-[(4-methoxy-benzoyl)-methyl-amino]-4-phenyl-butyl}-amide] | – | 2540 | – | 1250 |
| CN(C(=O)c1ccccc1)[C@H](CCNC(=O)c1ccccn1)[C@@H](F)c1ccccc1 [Example 116, Pyridine-2-carboxylic acid [(3R,4S)-3-(benzoyl-methyl-amino)-4-fluoro-4-phenyl-butyl]-amide] | – | – | 29 | 1550 |
| CN(C(=O)c1ccccc1)[C@H](CCNC(=O)c1cccnc1)Cc1ccccc1 [Example 86, N—[(S)-3-(Benzoyl-methyl-amino)-4-phenyl-butyl]-nicotinamide] | 4 | 1500 | – | – |
| CN(C(=O)c1ccccc1)[C@H](CCNC(=O)c1ccccn1)C(C)(C)c1ccccc1 [Example 114, Pyridine-2-carboxylic acid [(R)-3-(benzoyl-methyl-amino)-4-methyl-4-phenyl-pentyl]-amide] | 34 | – | 18 | – |
| CN(C(=O)c1ccccc1)[C@H](CCNC(=O)c1ccccn1)[C@@H](O)c1ccccc1 [Example 115, Pyridine-2-carboxylic acid [(3R,4S)-3-(benzoyl-methyl-amino)-4-hydroxy-4-phenyl-butyl]-amide] | 13 | – | 33 | – |
